From publication PMC6199309, “A therapeutic approach to pantothenate kinase associated neurodegeneration” (Nature Communications, 2018)

Key:
CDK2 = molecular target: T1, CDK2 (Homo sapiens, UniProt P24941); assay: KINOMEscan; type: binding; conditions: read-out: %Ctrl @ 10000nM
T1 construct: purchased DiscoverX KINOMEscan

ERK3 = molecular target: T2, ERK3 (Homo sapiens, UniProt Q16659); assay: KINOMEscan; type: binding; conditions: read-out: %Ctrl @ 10000nM
T2 construct: purchased DiscoverX KINOMEscan

BMPR1B = molecular target: T3, BMPR1B (Homo sapiens, UniProt O00238); assay: KINOMEscan; type: binding; conditions: read-out: %Ctrl @ 10000nM
T3 construct: purchased DiscoverX KINOMEscan

MARK4 = molecular target: T4, MARK4 (Homo sapiens, UniProt Q96L34); assay: KINOMEscan; type: binding; conditions: read-out: %Ctrl @ 10000nM
T4 construct: purchased DiscoverX KINOMEscan

[1] = test system: 72 cellular proteins known to cause off-target effects; assay: SAFETYscan off-target panel; conditions: 1 and 10 μM
MEK6 = molecular target: T5, MEK6 (Homo sapiens, UniProt P52564); assay: KINOMEscan; type: binding; conditions: read-out: %Ctrl @ 10000nM
T5 construct: purchased DiscoverX KINOMEscan

FGR = molecular target: T6, FGR (Homo sapiens, UniProt P09769); assay: KINOMEscan; type: binding; conditions: read-out: %Ctrl @ 10000nM
T6 construct: purchased DiscoverX KINOMEscan

PKNB(M.tuberculosis) = molecular target: T7, PKNB(M.tuberculosis) (Mycobacterium tuberculosis, UniProt P9WI81); assay: KINOMEscan; type: binding; conditions: read-out: %Ctrl @ 10000nM
T7 construct: purchased DiscoverX KINOMEscan

CDK5 = molecular target: T8, CDK5 (Homo sapiens, UniProt Q00535); assay: KINOMEscan; type: binding; conditions: read-out: %Ctrl @ 10000nM
T8 construct: purchased DiscoverX KINOMEscan

PRKG2 = molecular target: T9, PRKG2 (Homo sapiens, UniProt Q13237); assay: KINOMEscan; type: binding; conditions: read-out: %Ctrl @ 10000nM
T9 construct: purchased DiscoverX KINOMEscan

MLK1 = molecular target: T10, MLK1 (Homo sapiens, UniProt P80192); assay: KINOMEscan; type: binding; conditions: read-out: %Ctrl @ 10000nM
T10 construct: purchased DiscoverX KINOMEscan

PRKD3 = molecular target: T11, PRKD3 (Homo sapiens, UniProt O94806); assay: KINOMEscan; type: binding; conditions: read-out: %Ctrl @ 10000nM
T11 construct: purchased DiscoverX KINOMEscan

ICK = molecular target: T12, ICK (Homo sapiens, UniProt Q9UPZ9); assay: KINOMEscan; type: binding; conditions: read-out: %Ctrl @ 10000nM
T12 construct: purchased DiscoverX KINOMEscan

SBK1 = molecular target: T13, SBK1 (Homo sapiens, UniProt Q52WX2); assay: KINOMEscan; type: binding; conditions: read-out: %Ctrl @ 10000nM
T13 construct: purchased DiscoverX KINOMEscan

STK33 = molecular target: T14, STK33 (Homo sapiens, UniProt Q9BYT3); assay: KINOMEscan; type: binding; conditions: read-out: %Ctrl @ 10000nM
T14 construct: purchased DiscoverX KINOMEscan

CDK9 = molecular target: T15, CDK9 (Homo sapiens, UniProt P50750); assay: KINOMEscan; type: binding; conditions: read-out: %Ctrl @ 10000nM
T15 construct: purchased DiscoverX KINOMEscan

AKT2 = molecular target: T16, AKT2 (Homo sapiens, UniProt P31751); assay: KINOMEscan; type: binding; conditions: read-out: %Ctrl @ 10000nM
T16 construct: purchased DiscoverX KINOMEscan

MAP3K4 = molecular target: T17, MAP3K4 (Homo sapiens, UniProt Q9Y6R4); assay: KINOMEscan; type: binding; conditions: read-out: %Ctrl @ 10000nM
T17 construct: purchased DiscoverX KINOMEscan

AMPK-alpha2 = molecular target: T18, AMPK-alpha2 (Homo sapiens, UniProt P54646); assay: KINOMEscan; type: binding; conditions: read-out: %Ctrl @ 10000nM
T18 construct: purchased DiscoverX KINOMEscan

PIP5K1A = molecular target: T19, PIP5K1A (Homo sapiens, UniProt Q99755); assay: KINOMEscan; type: binding; conditions: read-out: %Ctrl @ 10000nM
T19 construct: purchased DiscoverX KINOMEscan

EGFR(E746-A750del) = molecular target: T20, EGFR(E746-A750del) (Homo sapiens, UniProt P00533, DEL746-750); assay: KINOMEscan; type: binding; conditions: read-out: %Ctrl @ 10000nM
T20 construct: purchased DiscoverX KINOMEscan

EPHA3 = molecular target: T21, EPHA3 (Homo sapiens, UniProt P29320); assay: KINOMEscan; type: binding; conditions: read-out: %Ctrl @ 10000nM
T21 construct: purchased DiscoverX KINOMEscan

ABL1-nonphosphorylated = molecular target: T22, ABL1-nonphosphorylated (Homo sapiens, UniProt P00519); assay: KINOMEscan; type: binding; conditions: read-out: %Ctrl @ 10000nM
T22 construct: purchased DiscoverX KINOMEscan

WNK1 = molecular target: T23, WNK1 (Homo sapiens, UniProt Q9H4A3); assay: KINOMEscan; type: binding; conditions: read-out: %Ctrl @ 10000nM
T23 construct: DNA label for qPCR (T7 phage fusion or DNA tag); purchased DiscoverX scanMAX; host or cells: E. coli BL21-derived (T7 phage) or HEK-293

EGFR = molecular target: T24, EGFR (Homo sapiens, UniProt P00533); assay: KINOMEscan; type: binding; conditions: read-out: %Ctrl @ 10000nM
T24 construct: purchased DiscoverX KINOMEscan

CDKL5 = molecular target: T25, CDKL5 (Homo sapiens, UniProt O76039); assay: KINOMEscan; type: binding; conditions: read-out: %Ctrl @ 10000nM
T25 construct: purchased DiscoverX KINOMEscan

Protein binding = conditions: mouse
RIPK2 = molecular target: T26, RIPK2 (Homo sapiens, UniProt O43353); assay: KINOMEscan; type: binding; conditions: read-out: %Ctrl @ 10000nM
T26 construct: purchased DiscoverX KINOMEscan

CSNK2A2 = molecular target: T27, CSNK2A2 (Homo sapiens, UniProt P19784); assay: KINOMEscan; type: binding; conditions: read-out: %Ctrl @ 10000nM
T27 construct: purchased DiscoverX KINOMEscan

AKT1 = molecular target: T28, AKT1 (Homo sapiens, UniProt P31749); assay: KINOMEscan; type: binding; conditions: read-out: %Ctrl @ 10000nM
T28 construct: purchased DiscoverX KINOMEscan

MAPKAPK2 = molecular target: T29, MAPKAPK2 (Homo sapiens, UniProt P49137); assay: KINOMEscan; type: binding; conditions: read-out: %Ctrl @ 10000nM
T29 construct: purchased DiscoverX KINOMEscan

PKAC-beta = molecular target: T30, PKAC-beta (Homo sapiens, UniProt P22694); assay: KINOMEscan; type: binding; conditions: read-out: %Ctrl @ 10000nM
T30 construct: purchased DiscoverX KINOMEscan

RET(V804M) = molecular target: T31, RET(V804M) (Homo sapiens, UniProt P07949, V804M); assay: KINOMEscan; type: binding; conditions: read-out: %Ctrl @ 10000nM
T31 construct: purchased DiscoverX KINOMEscan

PIK3CG = molecular target: T32, PIK3CG (Homo sapiens, UniProt P48736); assay: KINOMEscan; type: binding; conditions: read-out: %Ctrl @ 10000nM
T32 construct: purchased DiscoverX KINOMEscan

LIMK2 = molecular target: T33, LIMK2 (Homo sapiens, UniProt P53671); assay: KINOMEscan; type: binding; conditions: read-out: %Ctrl @ 10000nM
T33 construct: purchased DiscoverX KINOMEscan

MUSK = molecular target: T34, MUSK (Homo sapiens, UniProt O15146); assay: KINOMEscan; type: binding; conditions: read-out: %Ctrl @ 10000nM
T34 construct: purchased DiscoverX KINOMEscan

FAK = molecular target: T35, FAK (Homo sapiens, UniProt Q05397); assay: KINOMEscan; type: binding; conditions: read-out: %Ctrl @ 10000nM
T35 construct: purchased DiscoverX KINOMEscan

GRK2 = molecular target: T36, GRK2 (Homo sapiens, UniProt P25098); assay: KINOMEscan; type: binding; conditions: read-out: %Ctrl @ 10000nM
T36 construct: purchased DiscoverX KINOMEscan

RIPK5 = molecular target: T37, RIPK5 (Homo sapiens, UniProt Q6XUX3); assay: KINOMEscan; type: binding; conditions: read-out: %Ctrl @ 10000nM
T37 construct: purchased DiscoverX KINOMEscan

[2] = molecular target: T38, RSK2(Kin.Dom.1-N-terminal) (Homo sapiens, UniProt P51812); assay: KINOMEscan; type: binding; conditions: read-out: %Ctrl @ 10000nM
T38 construct: RSK2(Kin.Dom.1-N-terminal); purchased DiscoverX KINOMEscan

EPHB6 = molecular target: T39, EPHB6 (Homo sapiens, UniProt O15197); assay: KINOMEscan; type: binding; conditions: read-out: %Ctrl @ 10000nM
T39 construct: purchased DiscoverX KINOMEscan

TRKA = molecular target: T40, TRKA (Homo sapiens, UniProt P04629); assay: KINOMEscan; type: binding; conditions: read-out: %Ctrl @ 10000nM
T40 construct: purchased DiscoverX KINOMEscan

CDK4 = molecular target: T41, CDK4 (Homo sapiens, UniProt P11802); assay: KINOMEscan; type: binding; conditions: read-out: %Ctrl @ 10000nM
T41 construct: purchased DiscoverX KINOMEscan

T37 sequence (Q6XUX3 whole entry): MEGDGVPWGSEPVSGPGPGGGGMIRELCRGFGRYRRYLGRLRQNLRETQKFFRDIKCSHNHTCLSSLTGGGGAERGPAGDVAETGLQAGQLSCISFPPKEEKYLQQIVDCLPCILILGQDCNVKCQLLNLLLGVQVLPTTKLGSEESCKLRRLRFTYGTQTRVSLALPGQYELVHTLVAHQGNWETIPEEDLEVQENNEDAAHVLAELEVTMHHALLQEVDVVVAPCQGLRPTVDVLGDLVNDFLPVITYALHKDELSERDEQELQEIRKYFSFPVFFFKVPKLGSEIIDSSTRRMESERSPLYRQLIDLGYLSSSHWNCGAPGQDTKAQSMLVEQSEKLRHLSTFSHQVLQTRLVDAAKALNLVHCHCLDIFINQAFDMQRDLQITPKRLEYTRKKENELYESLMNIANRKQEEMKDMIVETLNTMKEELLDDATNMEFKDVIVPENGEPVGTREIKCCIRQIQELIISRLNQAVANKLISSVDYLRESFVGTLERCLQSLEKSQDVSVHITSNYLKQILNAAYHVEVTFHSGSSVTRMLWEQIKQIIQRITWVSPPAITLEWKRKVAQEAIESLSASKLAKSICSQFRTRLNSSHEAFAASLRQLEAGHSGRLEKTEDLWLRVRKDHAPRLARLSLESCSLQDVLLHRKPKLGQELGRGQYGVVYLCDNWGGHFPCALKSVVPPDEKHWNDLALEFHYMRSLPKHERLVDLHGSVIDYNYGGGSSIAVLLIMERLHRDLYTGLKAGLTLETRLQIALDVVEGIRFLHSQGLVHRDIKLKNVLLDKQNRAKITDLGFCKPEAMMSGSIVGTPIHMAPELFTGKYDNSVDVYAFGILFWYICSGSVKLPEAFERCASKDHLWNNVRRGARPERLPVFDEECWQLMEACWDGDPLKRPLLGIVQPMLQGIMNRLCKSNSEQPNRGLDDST
T35 sequence (Q05397 whole entry): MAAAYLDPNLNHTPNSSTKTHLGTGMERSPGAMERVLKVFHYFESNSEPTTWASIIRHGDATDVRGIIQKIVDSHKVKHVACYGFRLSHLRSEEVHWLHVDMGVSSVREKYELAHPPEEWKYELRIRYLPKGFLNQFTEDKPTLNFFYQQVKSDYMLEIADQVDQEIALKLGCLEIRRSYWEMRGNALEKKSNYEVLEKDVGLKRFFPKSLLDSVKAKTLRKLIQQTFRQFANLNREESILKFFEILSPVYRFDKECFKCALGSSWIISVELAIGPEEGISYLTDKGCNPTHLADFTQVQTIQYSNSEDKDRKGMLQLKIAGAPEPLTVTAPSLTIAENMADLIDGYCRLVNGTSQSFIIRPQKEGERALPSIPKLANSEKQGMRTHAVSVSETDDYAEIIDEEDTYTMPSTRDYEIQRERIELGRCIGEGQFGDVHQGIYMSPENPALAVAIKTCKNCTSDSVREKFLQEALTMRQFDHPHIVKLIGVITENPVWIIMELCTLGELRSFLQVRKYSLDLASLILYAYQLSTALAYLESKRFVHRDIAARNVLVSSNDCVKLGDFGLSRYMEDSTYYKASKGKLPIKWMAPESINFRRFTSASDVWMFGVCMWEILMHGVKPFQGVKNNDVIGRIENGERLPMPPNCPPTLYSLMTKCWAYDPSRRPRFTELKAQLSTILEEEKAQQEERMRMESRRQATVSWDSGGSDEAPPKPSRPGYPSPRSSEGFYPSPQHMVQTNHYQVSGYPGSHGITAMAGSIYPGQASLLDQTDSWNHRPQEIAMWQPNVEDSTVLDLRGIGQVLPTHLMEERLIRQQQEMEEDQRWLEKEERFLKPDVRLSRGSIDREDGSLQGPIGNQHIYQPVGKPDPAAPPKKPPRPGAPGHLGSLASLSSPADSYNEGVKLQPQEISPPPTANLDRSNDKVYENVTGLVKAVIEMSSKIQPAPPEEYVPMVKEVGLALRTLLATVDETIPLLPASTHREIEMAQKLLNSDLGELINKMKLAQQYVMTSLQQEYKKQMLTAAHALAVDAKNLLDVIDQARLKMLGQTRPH
T22 sequence (P00519 whole entry): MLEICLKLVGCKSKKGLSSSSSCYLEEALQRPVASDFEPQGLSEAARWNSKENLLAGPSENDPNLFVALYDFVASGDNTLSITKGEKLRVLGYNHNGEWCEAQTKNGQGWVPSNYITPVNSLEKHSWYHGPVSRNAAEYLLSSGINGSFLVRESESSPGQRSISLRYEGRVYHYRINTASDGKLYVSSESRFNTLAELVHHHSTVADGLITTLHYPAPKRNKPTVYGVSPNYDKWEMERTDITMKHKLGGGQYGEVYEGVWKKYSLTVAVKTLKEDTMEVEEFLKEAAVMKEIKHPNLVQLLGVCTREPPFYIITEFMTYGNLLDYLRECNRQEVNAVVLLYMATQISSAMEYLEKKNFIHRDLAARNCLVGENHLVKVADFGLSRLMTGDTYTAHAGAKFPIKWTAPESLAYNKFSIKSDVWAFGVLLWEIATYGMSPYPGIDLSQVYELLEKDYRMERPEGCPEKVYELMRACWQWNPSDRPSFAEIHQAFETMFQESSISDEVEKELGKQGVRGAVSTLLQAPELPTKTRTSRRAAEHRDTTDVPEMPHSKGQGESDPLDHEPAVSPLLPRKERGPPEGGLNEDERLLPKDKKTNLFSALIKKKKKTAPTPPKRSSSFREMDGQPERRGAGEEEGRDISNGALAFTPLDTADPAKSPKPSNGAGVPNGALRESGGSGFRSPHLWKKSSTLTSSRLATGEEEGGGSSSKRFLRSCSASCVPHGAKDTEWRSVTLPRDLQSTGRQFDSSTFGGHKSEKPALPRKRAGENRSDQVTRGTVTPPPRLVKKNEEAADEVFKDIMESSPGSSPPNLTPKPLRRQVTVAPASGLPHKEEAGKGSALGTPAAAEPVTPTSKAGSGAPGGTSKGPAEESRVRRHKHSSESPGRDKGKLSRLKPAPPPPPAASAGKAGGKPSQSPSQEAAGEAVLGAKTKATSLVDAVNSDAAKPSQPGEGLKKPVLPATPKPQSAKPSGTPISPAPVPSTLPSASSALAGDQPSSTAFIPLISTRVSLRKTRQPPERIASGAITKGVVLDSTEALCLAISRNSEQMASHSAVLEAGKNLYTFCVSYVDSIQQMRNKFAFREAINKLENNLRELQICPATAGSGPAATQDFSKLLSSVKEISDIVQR
T17 sequence (Q9Y6R4 whole entry): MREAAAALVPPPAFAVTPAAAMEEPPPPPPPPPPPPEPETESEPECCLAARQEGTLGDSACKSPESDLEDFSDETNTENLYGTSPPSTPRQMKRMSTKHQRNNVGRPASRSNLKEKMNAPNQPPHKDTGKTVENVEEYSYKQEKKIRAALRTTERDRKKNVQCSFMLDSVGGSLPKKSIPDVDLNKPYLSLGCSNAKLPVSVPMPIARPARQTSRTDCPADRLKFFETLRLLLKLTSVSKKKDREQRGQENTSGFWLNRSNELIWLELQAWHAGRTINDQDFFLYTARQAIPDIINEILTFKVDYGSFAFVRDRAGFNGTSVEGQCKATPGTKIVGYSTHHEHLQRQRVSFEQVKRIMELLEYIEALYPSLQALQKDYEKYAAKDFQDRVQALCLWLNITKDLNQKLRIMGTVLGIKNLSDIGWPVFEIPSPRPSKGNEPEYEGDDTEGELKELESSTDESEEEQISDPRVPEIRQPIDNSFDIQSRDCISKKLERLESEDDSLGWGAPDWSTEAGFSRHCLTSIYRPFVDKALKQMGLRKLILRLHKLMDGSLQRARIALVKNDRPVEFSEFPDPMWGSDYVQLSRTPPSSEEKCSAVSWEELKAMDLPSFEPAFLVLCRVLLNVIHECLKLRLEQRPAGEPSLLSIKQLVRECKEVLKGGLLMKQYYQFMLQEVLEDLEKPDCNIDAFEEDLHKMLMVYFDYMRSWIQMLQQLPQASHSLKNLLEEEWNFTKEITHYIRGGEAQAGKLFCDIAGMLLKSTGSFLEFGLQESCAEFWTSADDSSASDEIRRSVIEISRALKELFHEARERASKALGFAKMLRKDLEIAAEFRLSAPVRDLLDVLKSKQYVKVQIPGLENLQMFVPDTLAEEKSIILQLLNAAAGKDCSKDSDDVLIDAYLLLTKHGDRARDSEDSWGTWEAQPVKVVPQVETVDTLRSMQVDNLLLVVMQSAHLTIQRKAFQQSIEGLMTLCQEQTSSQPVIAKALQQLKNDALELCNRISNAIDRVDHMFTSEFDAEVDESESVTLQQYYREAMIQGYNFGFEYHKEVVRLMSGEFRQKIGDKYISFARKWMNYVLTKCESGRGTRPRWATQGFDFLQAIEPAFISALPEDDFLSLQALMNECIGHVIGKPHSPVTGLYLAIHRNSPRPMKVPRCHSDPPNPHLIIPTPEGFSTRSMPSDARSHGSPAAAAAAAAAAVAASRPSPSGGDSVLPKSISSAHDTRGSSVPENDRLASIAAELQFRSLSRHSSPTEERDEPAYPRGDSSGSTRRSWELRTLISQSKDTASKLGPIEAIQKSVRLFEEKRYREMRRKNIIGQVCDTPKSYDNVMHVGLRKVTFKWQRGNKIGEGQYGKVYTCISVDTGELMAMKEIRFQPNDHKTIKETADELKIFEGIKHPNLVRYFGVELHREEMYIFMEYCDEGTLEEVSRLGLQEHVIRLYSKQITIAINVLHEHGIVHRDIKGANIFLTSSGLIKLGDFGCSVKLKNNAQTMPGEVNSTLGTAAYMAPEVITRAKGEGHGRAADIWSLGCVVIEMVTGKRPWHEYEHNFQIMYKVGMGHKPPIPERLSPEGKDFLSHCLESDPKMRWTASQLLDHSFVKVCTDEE
T15 sequence (P50750 whole entry): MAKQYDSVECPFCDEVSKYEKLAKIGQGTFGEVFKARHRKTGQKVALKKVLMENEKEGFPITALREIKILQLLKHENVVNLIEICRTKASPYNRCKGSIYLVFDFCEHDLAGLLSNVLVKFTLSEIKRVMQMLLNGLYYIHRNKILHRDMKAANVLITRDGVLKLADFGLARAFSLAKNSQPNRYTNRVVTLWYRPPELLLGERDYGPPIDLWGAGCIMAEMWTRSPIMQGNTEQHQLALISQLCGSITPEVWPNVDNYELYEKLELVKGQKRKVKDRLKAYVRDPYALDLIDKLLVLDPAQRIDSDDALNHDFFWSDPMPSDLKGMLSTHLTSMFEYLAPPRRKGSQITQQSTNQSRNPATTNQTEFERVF

## CC(C)c1ccc(CC(=O)N2CCN(c3ccc(C#N)nn3)CC2)cc1 [PZ-2891, 6-(4-(2-(4-isopropylphenyl)acetyl)piperazin-1-yl)pyridazine-3-carbonitrile]
CDK2
  remaining binding at 10 µM: 87%
ERK3
  remaining binding at 10 µM: 97%
BMPR1B
  remaining binding at 10 µM: 60%
MARK4
  remaining binding at 10 µM: 81%
[1]
  off-target pharmacological interactions: absence of off-target pharmacological interactions
MEK6
  remaining binding at 10 µM: 94%
FGR
  remaining binding at 10 µM: 96%
PKNB(M.tuberculosis)
  remaining binding at 10 µM: 74%
CDK5
  remaining binding at 10 µM: 87%
PRKG2
  remaining binding at 10 µM: 76%
MLK1
  remaining binding at 10 µM: 81%
PRKD3
  remaining binding at 10 µM: 66%
ICK
  remaining binding at 10 µM: 81%
SBK1
  remaining binding at 10 µM: 62%
STK33
  remaining binding at 10 µM: 90%
CDK9
  remaining binding at 10 µM: 98%
AKT2
  remaining binding at 10 µM: 85%
MAP3K4
  remaining binding at 10 µM: 93%
AMPK-alpha2
  remaining binding at 10 µM: 100%
PIP5K1A
  remaining binding at 10 µM: 86%
EGFR(E746-A750del)
  remaining binding at 10 µM: 100%
EPHA3
  remaining binding at 10 µM: 65%
ABL1-nonphosphorylated
  remaining binding at 10 µM: 65%
WNK1
  remaining binding at 10 µM: 100%
EGFR
  remaining binding at 10 µM: 78%
CDKL5
  remaining binding at 10 µM: 67%
Protein binding
  fraction unbound: 0.08
RIPK2
  remaining binding at 10 µM: 89%
CSNK2A2
  remaining binding at 10 µM: 88%
AKT1
  remaining binding at 10 µM: 98%
MAPKAPK2
  remaining binding at 10 µM: 88%
PKAC-beta
  remaining binding at 10 µM: 95%
RET(V804M)
  remaining binding at 10 µM: 95%
PIK3CG
  remaining binding at 10 µM: 96%
LIMK2
  remaining binding at 10 µM: 95%
MUSK
  remaining binding at 10 µM: 95%
FAK
  remaining binding at 10 µM: 89%
GRK2
  remaining binding at 10 µM: 56%
RIPK5
  remaining binding at 10 µM: 77%
[2]
  remaining binding at 10 µM: 80%
EPHB6
  remaining binding at 10 µM: 68%
TRKA
  remaining binding at 10 µM: 100%
CDK4
  remaining binding at 10 µM: 99%
